Reference: the supplement of paper PMC11061612

Key:
Carboplatin = compound: C1CC(C1)(C(=O)[O-])C(=O)[O-].N.N.[Pt+2] [Carboplatin]; conditions: max 10 µM
In short: (§1)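 In 1536-well plates, cancer cell lines in 7.5 μl DMEM/F12 or RPMI with 10% FBS spent 24 hours at 37°C and 5% CO2 and were then dosed for 72 hours with final DMSO typically 0.2%. Viability was read by CellTiter-Glo 2.0 luminescence and scaled between blank-well and DMSO-well means. The single-agent IC50 was fitted from dose responses using a logistic curve in a non-linear mixed effects model, and that logistic curve had two parameters.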

AZD5363 = compound: C1CN(CCC1(C(=O)N[C@@H](CCO)C2=CC=C(C=C2)Cl)N)C3=NC=NC4=C3C=CN4 [AZD5363]; conditions: max 10 µM
In short: as §1

AZD1775 = compound: C=CCn1c(=O)c2cnc(Nc3ccc(N4CCN(C)CC4)cc3)nc2n1-c1cccc(C(C)(C)O)n1 [AZD1775]; conditions: max 3 µM
In short: as §1

Trametinib = compound: CC(=O)Nc1cccc(-n2c(=O)n(C3CC3)c(=O)c3c(Nc4ccc(I)cc4F)n(C)c(=O)c(C)c32)c1 [Trametinib]; conditions: max 1 µM
In short: as §1

Paclitaxel = compound: CC(=O)O[C@H]1C(=O)[C@@]2(C)[C@H]([C@H](OC(=O)c3ccccc3)[C@]3(O)C[C@H](OC(=O)[C@H](O)[C@@H](NC(=O)c4ccccc4)c4ccccc4)C(C)=C1C3(C)C)[C@]1(OC(C)=O)CO[C@@H]1C[C@@H]2O [Paclitaxel]; conditions: max 3 µM
In short: as §1

Palbociclib = compound: CC(=O)c1c(C)c2cnc(Nc3ccc(N4CCNCC4)cn3)nc2n(C2CCCC2)c1=O [Palbociclib]; conditions: max 10 µM
In short: as §1

AZD1390 = compound: CC(C)n1c(=O)n(C)c2cnc3cc(F)c(-c4ccc(OCCCN5CCCCC5)nc4)cc3c21 [AZD1390]; conditions: max 0.3 µM
In short: as §1

Venetoclax = compound: CC1(C)CCC(CN2CCN(c3ccc(C(=O)NS(=O)(=O)c4ccc(NCC5CCOCC5)c([N+](=O)[O-])c4)c(Oc4cnc5[nH]ccc5c4)c3)CC2)=C(c2ccc(Cl)cc2)C1 [Venetoclax]; conditions: max 1 µM
In short: as §1

Dasatinib = compound: CC1=C(C(=CC=C1)Cl)NC(=O)C2=CN=C(S2)NC3=CC(=NC(=N3)C)N4CCN(CC4)CCO [Dasatinib]; conditions: max 2 µM
In short: as §1

SG3199 = compound: CC1=CN2[C@@H](C1)C=NC3=CC(=C(C=C3C2=O)OC)OCCCCCOC4=C(C=C5C(=C4)N=C[C@@H]6CC(=CN6C5=O)C)OC [SG3199]; conditions: max 0.001 µM
In short: as §1

AZD2811 = compound: CCN(CCO)CCCOc1ccc2c(Nc3cc(CC(=O)Nc4cccc(F)c4)[nH]n3)ncnc2c1 [AZD2811]; conditions: max 1 µM
In short: as §1

SN-38 = compound: CCc1c2c(nc3ccc(O)cc13)-c1cc3c(c(=O)n1C2)COC(=O)[C@]3(O)CC [SN-38]; conditions: max 0.3 µM
In short: as §1

AZD0156 = compound: CN(C)CCCOc1ccc(-c2ccc3ncc4c(c3c2)n(C2CCOCC2)c(=O)n4C)cn1 [AZD0156]; conditions: max 3 µM
In short: as §1

AZD4320 = compound: CN(CC[C@H](CSC1=CC=CC=C1)NC2=C(C=C(C=C2)S(=O)(=O)NC(=O)C3=CC=C(C=C3)N4CCC(CC4)[C@H](C5=CC=CC=C5C6=CC=C(C=C6)Cl)O)S(=O)(=O)C(F)(F)F)CCO [AZD4320]; conditions: max 1 µM
In short: as §1

Alisertib = compound: COc1cc(Nc2ncc3c(n2)-c2ccc(Cl)cc2C(c2c(F)cccc2OC)=NC3)ccc1C(=O)O [Alisertib]; conditions: max 10 µM
In short: as §1

Etoposide = compound: COc1cc([C@@H]2c3cc4c(cc3[C@@H](O[C@@H]3O[C@@H]5CO[C@@H](C)O[C@H]5[C@H](O)[C@H]3O)[C@H]3COC(=O)[C@H]23)OCO4)cc(OC)c1O [Etoposide]; conditions: max 10 µM
In short: as §1

Gefitinib = compound: COc1cc2ncnc(Nc3ccc(F)c(Cl)c3)c2cc1OCCCN1CCOCC1 [Gefitinib]; conditions: max 10 µM
In short: as §1

Prexasertib = compound: COc1cccc(OCCCN)c1-c1cc(Nc2cnc(C#N)cn2)n[nH]1 [Prexasertib]; conditions: max 1 µM
In short: as §1

Doxorubicin = compound: COc1cccc2c1C(=O)c1c(O)c3c(c(O)c1C2=O)C[C@@](O)(C(=O)CO)C[C@@H]3O[C@H]1C[C@H](N)[C@H](O)[C@H](C)O1 [Doxorubicin]; conditions: max 1 µM
In short: as §1

AZD5153 = compound: COc1nnc2ccc(N3CCC(c4ccc(OCCN5CCN(C)C(=O)[C@H]5C)cc4)CC3)nn12 [AZD5153]; conditions: max 1 µM
In short: as §1

Lapatinib = compound: CS(=O)(=O)CCNCc1ccc(-c2ccc3ncnc(Nc4ccc(OCc5cccc(F)c5)c(Cl)c4)c3c2)o1 [Lapatinib]; conditions: max 10 µM
In short: as §1

AZD8186 = compound: C[C@@H](Nc1cc(F)cc(F)c1)c1cc(C(=O)N(C)C)cc2c(=O)cc(N3CCOCC3)oc12 [AZD8186]; conditions: max 10 µM
In short: as §1

Crizotinib = compound: C[C@@H](Oc1cc(-c2cnn(C3CCNCC3)c2)cnc1N)c1c(Cl)ccc(F)c1Cl [Crizotinib]; conditions: max 10 µM
In short: as §1

Savolitinib = compound: C[C@@H](c1ccc2nccn2c1)n1nnc2ncc(-c3cnn(C)c3)nc21 [Savolitinib]; conditions: max 1 µM
In short: as §1

AZD6738 = compound: C[C@@H]1COCCN1C2=NC(=NC(=C2)C3(CC3)[S@](=N)(=O)C)C4=C5C=CNC5=NC=C4 [AZD6738]; conditions: max 10 µM
In short: as §1

AZD5991 = compound: Cc1c2c(nn1C)CSCc1cc(n(C)n1)CSc1cc(c3ccccc3c1)OCCCc1c(C(=O)O)n(C)c3c-2c(Cl)ccc13 [AZD5991]; conditions: max 1 µM
In short: as §1

AZD7648 = compound: Cc1cc2ncnn2cc1Nc1ncc2c(n1)n(C1CCOCC1)c(=O)n2C [AZD7648]; conditions: max 10 µM
In short: as §1

Taselisib = compound: Cc1nc(-c2cn3c(n2)-c2ccc(-c4cnn(C(C)(C)C(N)=O)c4)cc2OCC3)n(C(C)C)n1 [Taselisib]; conditions: max 10 µM
In short: as §1

Selumetinib = compound: Cn1cnc2c(F)c(Nc3ccc(Br)cc3Cl)c(C(=O)NOCCO)cc21 [Selumetinib]; conditions: max 10 µM
In short: as §1

SRA737 = compound: N#Cc1cnc(Nc2cc(NC[C@H]3CNCCO3)c(C(F)(F)F)cn2)cn1 [SRA737]; conditions: max 10 µM
In short: as §1

MK-2206 = compound: NC1(c2ccc(-c3nc4ccn5c(=O)[nH]nc5c4cc3-c3ccccc3)cc2)CCC1 [MK-2206]; conditions: max 10 µM
In short: as §1

Gemcitabine = compound: Nc1ccn([C@@H]2O[C@H](CO)[C@@H](O)C2(F)F)c(=O)n1 [Gemcitabine]; conditions: max 0.3 µM
In short: as §1

[1] = compound: O=C(Nc1ccc2[nH]nc(-c3ccncc3)c2c1)[C@@H]1CCN(CC(=O)N2CCN(c3ccc(-c4ncccn4)cc3)CC2)C1; conditions: max 5 µM
In short: as §1

Olaparib = compound: O=C(c1cc(Cc2n[nH]c(=O)c3ccccc23)ccc1F)N1CCN(C(=O)C2CC2)CC1 [Olaparib]; conditions: max 10 µM
In short: as §1

5-Fluorouracil = compound: O=c1[nH]cc(F)c(=O)[nH]1 [5-Fluorouracil]; conditions: max 20 µM
In short: as §1

Cell Line	IC50, cell viability 72 h (Carboplatin) [µM]	IC50, cell viability 72 h (AZD5363) [µM]	IC50, cell viability 72 h (AZD1775) [nM]	IC50, cell viability 72 h (Trametinib) [nM]	IC50, cell viability 72 h (Paclitaxel) [nM]	IC50, cell viability 72 h (Palbociclib) [µM]	IC50, cell viability 72 h (AZD1390) [nM]	IC50, cell viability 72 h (Venetoclax) [nM]	IC50, cell viability 72 h (Dasatinib) [nM]	IC50, cell viability 72 h (SG3199) [nM]	IC50, cell viability 72 h (AZD2811) [nM]	IC50, cell viability 72 h (SN-38) [nM]	IC50, cell viability 72 h (AZD0156) [nM]	IC50, cell viability 72 h (AZD4320) [nM]	IC50, cell viability 72 h (Alisertib) [nM]	IC50, cell viability 72 h (Etoposide) [nM]	IC50, cell viability 72 h (Gefitinib) [µM]	IC50, cell viability 72 h (Prexasertib) [nM]	IC50, cell viability 72 h (Doxorubicin) [nM]	IC50, cell viability 72 h (AZD5153) [nM]	IC50, cell viability 72 h (Lapatinib) [µM]	IC50, cell viability 72 h (AZD8186) [µM]	IC50, cell viability 72 h (Crizotinib) [nM]	IC50, cell viability 72 h (Savolitinib) [nM]	IC50, cell viability 72 h (AZD6738) [nM]	IC50, cell viability 72 h (AZD5991) [nM]	IC50, cell viability 72 h (AZD7648) [µM]	IC50, cell viability 72 h (Taselisib) [nM]	IC50, cell viability 72 h (Selumetinib) [µM]	IC50, cell viability 72 h (SRA737) [nM]	IC50, cell viability 72 h (MK-2206) [nM]	IC50, cell viability 72 h (Gemcitabine) [nM]	IC50, cell viability 72 h [1] [nM]	IC50, cell viability 72 h (Olaparib) [µM]	IC50, cell viability 72 h (5-Fluorouracil) [µM]
ML-2 (Acute Myeloid Leukemia)	> 10	5.95	243	20.6	5.85	2.41	> 300	118	> 2000	> 1	20.9	4.88	> 3000	27.5	660	342	> 10	4.33	70.3	116	> 10	> 10	1950	> 1000	1780	62.6	> 10	1530	0.381	995	> 10000	13.6	290	8.05	1.55
SW982 (Other Solid Carcinomas)	> 10	> 10	1140	702	6.45	4.39	> 300	> 1000	68	> 1	444	9.38	> 3000	> 1000	1040	789	> 10	91.3	80.4	63.3	> 10	4.65	3590	> 1000	5530	> 1000	> 10	2620	> 10	> 10000	> 10000	13.6	2850	> 10	11.3
COLO-668 (Small Cell Lung Carcinoma)	> 10	> 10	> 3000	408	> 3000	> 10	> 300	> 1000	> 2000	> 1	> 1000	5.32	> 3000	319	> 10000	> 10000	> 10	63.7	329	> 1000	> 10	> 10	> 10000	> 1000	8160	> 1000	> 10	5340	> 10	> 10000	> 10000	41.3	4480	> 10	> 20
A4-Fuk (B-Lymphoblastic Leukemia)	> 10	2.06	110	282	3.17	4.24	> 300	966	> 2000	> 1	> 1000	17.4	2420	> 1000	207	321	> 10	7.45	237	29.4	7.57	5.86	2210	> 1000	2210	77.6	5.15	234	> 10	844	2770	6.82	771	> 10	3.92
HAL-01 (B-Lymphoblastic Leukemia)	> 10	> 10	327	> 1000	335	1.89	> 300	109	> 2000	> 1	> 1000	5.69	> 3000	496	109	2700	> 10	16.6	496	91.8	> 10	1.13	2840	> 1000	652	> 1000	> 10	360	> 10	528	1000	2.47	> 5000	> 10	> 20
